Molecules are shown by their SMILES.

Usually Ki stands for a measure of affinity in units of concentration, obtained from inhibition or displacement. A high value points to lower affinity.

Chain of GST-Bcl-2 (P10415 whole entry): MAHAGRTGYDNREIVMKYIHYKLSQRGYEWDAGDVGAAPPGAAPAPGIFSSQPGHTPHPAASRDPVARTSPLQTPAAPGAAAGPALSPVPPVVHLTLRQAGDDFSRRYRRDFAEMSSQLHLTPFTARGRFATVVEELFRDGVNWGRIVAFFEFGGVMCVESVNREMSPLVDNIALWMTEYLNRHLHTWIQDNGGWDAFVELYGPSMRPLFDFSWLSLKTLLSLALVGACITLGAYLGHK

The first assay has as its target GST-Bcl-2 (Homo sapiens (Human), UniProt P10415). The experiment in a line: Time Resolved-Fluorescence Resonance Energy Transfer (TR-FRET) Bcl-2 binding assay.
Settings: not given
In outline: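 Ki values derived from TR-FRET displacement of F-Bak peptide from GST-Bcl-2, detected with Tb-labelled anti-GST antibody (ex 340, em 520/495 nm). Compound dilution series started at 50 μM (2× starting concentration); room-temperature incubation 3 hours.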
Turning to `CC1(C)CCC(CN2CCN(c3ccc(C(=O)NS(=O)(=O)c4ccc(N[C@H]5CC[C@H](N6CCOCC6)CC5)c([N+](=O)[O-])c4)c(Oc4cccc5c4CC(=O)N5)c3)CC2)=C(c2ccc(Cl)cc2)C1` [Example 320, Trans-4-(4-{[2-(4-chlorophenyl)-4,4-dimethylcyclohex-1-en-1-yl]methyl}piperazin-1-yl)-N-({4-[(4-morpholin-4-ylcyclohexyl)amino]-3-nitrophenyl}sulfonyl)-2-[(2-oxo-2,3-dihydro-1H-indol-4-yl)oxy]benzamide], the inhibition constant Ki was determined as 0.028 nM.

The assay is the same for the next values; noted with them: GST-Bcl-2 1 nM, F-Bak peptide probe 100 nM, Tb-anti-GST antibody 1 nM; Ki by Wang's equation.
In turn, `CC1(C)CCC(CN2CCN(c3ccc(C(=O)NS(=O)(=O)c4ccc(NCCN5CCOCC5)c([N+](=O)[O-])c4)c(Oc4ccccc4F)c3)CC2)=C(c2ccc(Cl)cc2)C1` [Example 126, 4-(4-{[2-(4-chlorophenyl)-4,4-dimethylcyclohex-1-en-1-yl]methyl}piperazin-1-yl)-2-(2-fluorophenoxy)-N-({4-[(2-morpholin-4-ylethyl)amino]-3-nitrophenyl}sulfonyl)benzamide] had an inhibitory constant (Ki) of 0.068 nM.

`Nc1ccc(Oc2cc(N3CCN(Cc4ccccc4-c4ccc(Cl)cc4)CC3)ccc2C(=O)NS(=O)(=O)c2ccc(NCC3CCOCC3)c([N+](=O)[O-])c2)cc1` [Example 18, 2-(4-aminophenoxy)-4-(4-((4′-chloro-1,1′-biphenyl-2-yl)methyl)piperazin-1-yl)-N-((3-nitro-4-((tetrahydro-2H-pyran-4-ylmethyl)amino)phenyl)sulfonyl)benzamide] came in with a Ki of 2.49 nM.

`CC1(C)CCC(CN2CCN(c3ccc(C(=O)NS(=O)(=O)c4ccc(NC5CCN(C6CCOCC6)CC5)c([N+](=O)[O-])c4)c(Oc4cc5cc[nH]c5cc4F)c3)CC2)=C(c2ccc(Cl)cc2)C1` [Example 193, 4-(4-{[2-(4-chlorophenyl)-4,4-dimethylcyclohex-1-en-1-yl]methyl}piperazin-1-yl)-2-[(6-fluoro-1H-indol-5-yl)oxy]-N-({3-nitro-4-[(1-tetrahydro-2H-pyran-4-ylpiperidin-4-yl)amino]phenyl}sulfonyl)benzamide] displayed a Ki of 0.064 nM.

`CC1(C)CCC(CN2CCN(c3ccc(C(=O)NS(=O)(=O)c4ccc(NCC5(F)CCOCC5)c([N+](=O)[O-])c4)c(Oc4cc5cc[nH]c5cc4F)c3)CC2)=C(c2ccc(Cl)cc2)C1` [Example 337, 4-(4-{[2-(4-chlorophenyl)-4,4-dimethylcyclohex-1-en-1-yl]methyl}piperazin-1-yl)-2-[(6-fluoro-1H-indol-5-yl)oxy]-N-[(4-{[(4-fluorotetrahydro-2H-pyran-4-yl)methyl]amino}-3-nitrophenyl)sulfonyl]benzamide]: the Ki worked out at 0.049 nM.

In the case of `CC1(C)CCC(CN2CCN(c3ccc(C(=O)NS(=O)(=O)c4ccc(OCC5(F)CCN(C(CF)CF)CC5)c([N+](=O)[O-])c4)c(Oc4cnc(N)c(Cl)c4)c3)CC2)=C(c2ccc(Cl)cc2)C1` [Example 371, 2-[(6-amino-5-chloropyridin-3-yl)oxy]-4-(4-{[2-(4-chlorophenyl)-4,4-dimethylcyclohex-1-en-1-yl]methyl}piperazin-1-yl)-N-{[4-({4-fluoro-1-[2-fluoro-1-(fluoromethyl)ethyl]piperidin-4-yl}methoxy)-3-nitrophenyl]sulfonyl}benzamide], the Ki was less than 0.01 nM.

Consider `CC1(C)CCC(CN2CCN(c3ccc(C(=O)NS(=O)(=O)c4ccc(NCCN5CCOCC5)c([N+](=O)[O-])c4)c(Oc4cccc(Cl)c4)c3)CC2)=C(c2ccc(Cl)cc2)C1` [Example 141, 2-(3-chlorophenoxy)-4-(4-{[2-(4-chlorophenyl)-4,4-dimethylcyclohex-1-en-1-yl]methyl}piperazin-1-yl)-N-({4-[(2-morpholin-4-ylethyl)amino]-3-nitrophenyl}sulfonyl)benzamide], for which the Ki worked out at 0.482 nM.

With `Cc1nc2cc(Oc3cc(N4CCN(Cc5ccccc5-c5ccc(Cl)cc5)CC4)ccc3C(=O)NS(=O)(=O)c3ccc(NCCCN(C)C)c([N+](=O)[O-])c3)ccc2s1` [Example 25, 4-(4-((4′-chloro-1,1′-biphenyl-2-yl)methyl)piperazin-1-yl)-N-((4-((3-(dimethylamino)propyl)amino)-3-nitrophenyl)sulfonyl)-2-((2-methyl-1,3-benzothiazol-5-yl)oxy)benzamide], the inhibition constant (Ki) was found to be 1.5 nM.

Regarding `CN1CCN(Nc2ccc(S(=O)(=O)NC(=O)c3ccc(N4CCN(CC5=C(c6ccc(Cl)cc6)CC(C)(C)CC5)CC4)cc3Oc3cccc(Cl)c3)cc2[N+](=O)[O-])CC1` [Example 199, 2-(3-chlorophenoxy)-4-(4-{[2-(4-chlorophenyl)-4,4-dimethylcyclohex-1-en-1-yl]methyl}piperazin-1-yl)-N-({4-[(4-methylpiperazin-1-yl)amino]-3-nitrophenyl}sulfonyl)benzamide], the Ki was 0.244 nM.

In turn, `CN1CCN(Nc2ccc(S(=O)(=O)NC(=O)c3ccc(N4CCN(CC5=C(c6ccc(Cl)cc6)CC(C)(C)CC5)CC4)cc3Oc3ccc(O)cc3Cl)cc2S(=O)(=O)C(F)(F)F)CC1` [Example 211, 2-(2-chloro-4-hydroxyphenoxy)-4-(4-{[2-(4-chlorophenyl)-4,4-dimethylcyclohex-1-en-1-yl]methyl}piperazin-1-yl)-N-({4-[(4-methylpiperazin-1-yl)amino]-3-[(trifluoromethyl)sulfonyl]phenyl}sulfonyl)benzamide] registered a Ki of 1.34 nM.

Take `CC1(C)CCC(CN2CCN(c3ccc(C(=O)NS(=O)(=O)c4ccc(NCC5COCCO5)c([N+](=O)[O-])c4)c(Oc4cc5cc[nH]c5cc4F)c3)CC2)=C(c2ccc(Cl)cc2)C1` (stereo not shown) [Example 292, 4-(4-{[2-(4-chlorophenyl)-4,4-dimethylcyclohex-1-en-1-yl]methyl}piperazin-1-yl)-N-({4-[(1,4-dioxan-2-ylmethyl)amino]-3-nitrophenyl}sulfonyl)-2-[(6-fluoro-1H-indol-5-yl)oxy]benzamide]: the inhibition constant Ki was 0.191 nM.

Compound `CN(C)CCCNc1ccc(S(=O)(=O)NC(=O)c2ccc(N3CCN(CC4=C(c5ccc(Cl)cc5)CC(C)(C)CC4)CC3)cc2Oc2cccc3c2c(CN2CCN(C)CC2)cn3CN2CCN(C)CC2)cc1[N+](=O)[O-]` [Example 212, 2-({1,3-bis[(4-methylpiperazin-1-yl)methyl]-1H-indol-4-yl}oxy)-4-(4-{[2-(4-chlorophenyl)-4,4-dimethylcyclohex-1-en-1-yl]methyl}piperazin-1-yl)-N-[(4-{[3-(dimethylamino)propyl]amino}-3-nitrophenyl)sulfonyl]benzamide] returned a Ki of 0.375 nM.

As for `CC1(C)CCC(CN2CCN(c3ccc(C(=O)NS(=O)(=O)c4ccc(NCC5CCC(O)CC5)c([N+](=O)[O-])c4)c(Oc4cnc(N)c(Cl)c4)c3)CC2)=C(c2ccc(Cl)cc2)C1` (stereo not shown) [Example 386, 2-[(6-amino-5-chloropyridin-3-yl)oxy]-4-(4-{[2-(4-chlorophenyl)-4,4-dimethylcyclohex-1-en-1-yl]methyl}piperazin-1-yl)-N-[(4-{[(4-hydroxycyclohexyl)methyl]amino}-3-nitrophenyl)sulfonyl]benzamide], the Ki was less than 0.01 nM.

In the case of `O=C(NS(=O)(=O)c1ccc(NCC2CCOCC2)c([N+](=O)[O-])c1)c1ccc(N2CCN(Cc3ccccc3-c3ccc(Cl)cc3)CC2)cc1Oc1cccc(-c2ccccc2)c1` [Example 86, 2-(1,1′-biphenyl-3-yloxy)-4-(4-((4′-chloro-1,1′-biphenyl-2-yl)methyl)piperazin-1-yl)-N-((3-nitro-4-((tetrahydro-2H-pyran-4-ylmethyl)amino)phenyl)sulfonyl)benzamide], the affinity corresponds to a Ki of 5.26 nM.

For the compound `CC1(C)CCC(CN2CCN(c3ccc(C(=O)NS(=O)(=O)c4ccc(N[C@@H]5CCCN(C(CF)CF)C5)c([N+](=O)[O-])c4)c(Oc4cnc(N)c(Cl)c4)c3)CC2)=C(c2ccc(Cl)cc2)C1` [Example 382, 2-[(6-amino-5-chloropyridin-3-yl)oxy]-4-(4-{[2-(4-chlorophenyl)-4,4-dimethylcyclohex-1-en-1-yl]methyl}piperazin-1-yl)-N-{[4-({(3R)-1-[2-fluoro-1-(fluoromethyl)ethyl]piperidin-3-yl}amino)-3-nitrophenyl]sulfonyl}benzamide], affinity was put at a Ki of 0.114 nM.

Turning to `CC1(C)CCC(c2ccc(Cl)cc2)=C(CN2CCN(c3ccc(C(=O)NS(=O)(=O)c4ccc(NCC5CCOCC5)c([N+](=O)[O-])c4)c(Oc4cc5cc[nH]c5cc4F)c3)CC2)C1` [Example 262, 4-(4-{[2-(4-chlorophenyl)-5,5-dimethylcyclohex-1-en-1-yl]methyl}piperazin-1-yl)-2-[(6-fluoro-1H-indol-5-yl)oxy]-N-({3-nitro-4-[(tetrahydro-2H-pyran-4-ylmethyl)amino]phenyl}sulfonyl)benzamide], the Ki was 0.276 nM.

Regarding `O=C(NS(=O)(=O)c1ccc(NCCCN2CCOCC2)c([N+](=O)[O-])c1)c1ccc(N2CCN(Cc3ccccc3-c3ccc(Cl)cc3)CC2)cc1Oc1cccc(OCc2ccccc2)c1` [Example 93, 2-(3-(benzyloxy)phenoxy)-4-(4-((4′-chloro-1,1′-biphenyl-2-yl)methyl)piperazin-1-yl)-N-((4-((3-morpholin-4-ylpropyl)amino)-3-nitrophenyl)sulfonyl)benzamide], the Ki stood at 16.8 nM.

Turning to `Cc1nc2ccc(Oc3cc(N4CCN(Cc5ccccc5-c5ccc(Cl)cc5)CC4)ccc3C(=O)NS(=O)(=O)c3ccc(NCC4CCOCC4)c([N+](=O)[O-])c3)cc2s1` [Example 23, 4-(4-((4′-chloro-1,1′-biphenyl-2-yl)methyl)piperazin-1-yl)-2-((2-methyl-1,3-benzothiazol-6-yl)oxy)-N-((3-nitro-4-((tetrahydro-2H-pyran-4-ylmethyl)amino)phenyl)sulfonyl)benzamide], the affinity, expressed as Ki, was 8.27 nM.

As to `CN(C)c1cccc(Oc2cc(N3CCN(Cc4ccccc4-c4ccc(Cl)cc4)CC3)ccc2C(=O)NS(=O)(=O)c2ccc(NCC3CCOCC3)c([N+](=O)[O-])c2)c1` [Example 21, 4-(4-((4′-chloro-1,1′-biphenyl-2-yl)methyl)piperazin-1-yl)-2-(3-(dimethylamino)phenoxy)-N-((3-nitro-4-((tetrahydro-2H-pyran-4-ylmethyl)amino)phenyl)sulfonyl)benzamide], the affinity corresponds to a Ki of 14.1 nM.

The values are drawn from patent US8952157B2, “Apoptosis-inducing agents for the treatment of cancer and immune and autoimmune diseases” (AbbVie Inc., priority 2008, dated 2015).
